Measurements: paper PMC9544596 (Journal of Clinical Pharmacology, 2022)

Assays:
[1] = tested on: Enterococcus spp.; test: Vancomycin MIC of cultured clinical isolates; type: cell-based
[2] = Population pharmacokinetic model of vancomycin

- MIC50 ([1]; Enterococcus, read-out: MIC50 (min-max)): 1 µg/mL
- MIC50 (min-max) ([1]; patients without shock, 6 isolates): 1 mg/L
- MIC50 (min-max) ([1]; septic shock patients, 5 isolates): 1 mg/L
- CL, bootstrap of final model estimate ([2]; 1000 bootstrap replicates): 1.23 L/h
- Vd, bootstrap of final model estimate ([2]; 1000 bootstrap replicates): 66.51 L
- θ1, bootstrap of final model estimate ([2]; 1000 bootstrap replicates): 1.00
- Vd, final model estimate ([2]; Thai GFR not indexed to BSA final model): 67.46 L
SMILES: CN[C@H](CC(C)C)C(=O)N[C@H]1C(=O)N[C@@H](CC(N)=O)C(=O)N[C@H]2C(=O)N[C@H]3C(=O)N[C@H](C(=O)N[C@H](C(=O)O)c4cc(O)cc(O)c4-c4cc3ccc4O)[C@H](O)c3ccc(c(Cl)c3)Oc3cc2cc(c3O[C@@H]2O[C@H](CO)[C@@H](O)[C@H](O)[C@H]2O[C@H]2C[C@](C)(N)[C@H](O)[C@H](C)O2)Oc2ccc(cc2Cl)[C@H]1O [vancomycin]
